Data on 22 compounds can be found in patent US11186588B2 (AYUMI PHARMACEUTICAL CORPORATION, priority 2017, dated 2021).

The target of assay [1] is Recombinant BRD4 (44-168) protein (Homo sapiens (Human), UniProt O60885). Nature of the assay: BRD4-H4KAc4 binding assay (amplified luminescence proximity homogeneous assay, AlphaScreen). The settings on record: 10 uM. The protocol:
In order to evaluate BRD4 inhibitory activity of the present compounds, BRD4-H4KAc4 binding assay was carried out by an amplified luminescence proximity homogeneous assay. The specific method is described below.
H4KAc4 peptide (available from Toray Research Center, Inc., sequence SGRGK(Ac)GGK(Ac)GLGK(Ac)GGAK(Ac)RHR-K(Biotin)-NH2) was dissolved in 1×Assay buffer to prepare 1 mM H4KAc4 peptide stock solution.
N-terminal His tag/C-terminal FLAG tag-fused type Recombinant BRD4 (44-168) protein (available from Active Motif, Cat No. 31380) was diluted with 1×Assay buffer to 1,250-fold to prepare 250 nM BRD4 solution.
1% DMSO solution (control) and 2 μL of each compound solution in each concentration were added to each well of AlphaPlate-384 (from PerkinElmer, Cat No. 6008350). Next, 2 μL of 250 nM BRD4 solution was added to each well of AlphaPlate-384. Further, 2 μL of 250 nM H4KAc4 peptide solution was added to each well of AlphaPlate-384. After addition of the 250 nM H4KAc4 peptide solution, the mixture was allowed to stand at room temperature under light shielding for 60 minutes, and 4 μL of AlphaScreen beads were added to each well of AlphaPlate-384. After addition of the AlphaScreen beads, the mixture was allowed to stand at room temperature under light shielding for 60 minutes, emission at 520-620 nm upon excitation at 680 nm was detected by EnVision multilabel counter (from PerkinElmer), and binding of BRD4 and H4KAc4 was detected. Incidentally, the evaluation of each compound was carried out in duplicate (2 well per 1 compound).
The BRD4 inhibition rate (%) was calculated by the following equation using Microsoft EXCEL 2010. BRD4 inhibition rate (%)=100−{(luminescence intensity average value of each compound added well)−(average value of luminescence intensity of blank well))/(average value of luminescence intensity of control well)−(average value of luminescence intensity of blank well)}×100
On the technique in general: In Alpha technology, singlet oxygen from a donor bead excites a nearby acceptor bead.

The test system of another assay is NF-κB. As to the kind of experiment: NF-κB reporter gene assay (TNF-α stimulated A549/NF-κB-luc cells). The assay is classed as cell-based. The settings on record: Homo sapiens, TNF-α stimulation. The protocol:
In order to evaluate NF-κB inhibitory activity of the present compounds, NF-κB reporter gene assay was carried out. The specific method is described below.
Gene recombinant human TNF-α (available from R&D systems, Cat No. 210-TA) was dissolved in D-PBS(−) (available from Wako Pure Chemical Industries, Ltd., Cat No. 293-72601) to prepare 100 μg/mL of TNF-α solution stock solution. 100 μg/mL of the TNF-α solution stock solution was diluted with the culture medium to prepare 10 ng/mL of TNF-α solution.
A549/NF-κB-luc cells (available from Panomics, Cat No. LR0051) were prepared at 375,000 cells/mL in the culture medium. The 375,000 cells/mL A549/NF-κB-luc cell suspension was seeded at 80 μL each on a white 96-well plate (available from Greiner, Cat No. 655073). One hour after seeding the cells, 10 μL of 2% DMSO solution (control) and each compound solution in each concentration were added to each well of the 96-well plate. One hour after the addition of each compound solution, 10 ng/mL of the TNF-α solution (10 μL) was added to each well of the 96-well plate. Three hours after the addition of 10 ng/mL of the TNF-α solution, 100 μL of Steady-Glo reagent (available from Promega, Cat No. E2510) was added to each well of the 96-well plate. After 30 to 90 minutes of the addition of the Steady-Glo reagent, the luminescence intensity of each well was detected by EnVision multilabel counter (available from PerkinElmer).
NF-κB inhibition rate (%) was calculated by the following equation using Microsoft EXCEL 2010. NF-κB inhibition rate (%)=100−{(luminescence intensity average value of each compound added well)−(average value of luminescence intensity of blank well))/(average value of luminescence intensity of control well)−(average value of luminescence intensity of blank well)}×100 In addition, IC50 values were calculated from the calculated NF-κB inhibition rate (%) using curve fitting software XLfit (available from IDBS).
A general note: Reporter assays use an easily measured gene product as a stand-in for the process of interest.

By inhibition is commonly meant the change of the read-out against control, counted positive when it falls. By IC50 is commonly meant the concentration at which inhibition is half-maximal. A high value points to a need for much substance. Take `Cc1sc2c(c1C)C(c1ccc(Cl)cc1)=NN(Cc1ccccc1)c1nnc(C)n1-2` [Example 3, 6-benzyl-4-(4-chlorophenyl)-2,3,9-trimethyl-6H-thieno[2,3-e][1,2,4]triazolo[3,4-c][1,2,4]triazepine]: the inhibition at 10 µM in assay [1] turned out to be 100%. The compound further displayed an IC50 in the assay on NF-κB of 51.9 nM. As for `COc1cccc(CN2N=C(c3ccc(Cl)cc3)c3c(sc(C)c3C)-n3c(C)nnc32)c1` [Example 6, 4-(4-chlorophenyl)-6-(3-methoxybenzyl)-2,3,9-trimethyl-6H-thieno[2,3-e][1,2,4]triazolo[3,4-c][1,2,4]triazepine], the inhibition at 10 µM in assay [1] stood at 100%. The compound further yielded a half-inhibitory concentration (IC50) with NF-κB of 86.4 nM. The corresponding values for `Cc1sc2c(c1C)C(c1ccc(Cl)cc1)=NN(Cc1ccc(C(C)(C)C)cc1)c1nnc(C)n1-2` [Example 7, 6-(4-(tert-butyl)benzyl)-4-(4-chlorophenyl)-2,3,9-trimethyl-6H-thieno[2,3-e][1,2,4]triazolo[3,4-c][1,2,4]triazepine] are 99.8% and 735 nM.

On to `Cc1sc2c(c1C)C(c1ccc(Cl)cc1)=NN(Cc1ccccc1F)c1nnc(C)n1-2` [Example 8, 4-(4-chlorophenyl)-6-(2-fluorobenzyl)-2,3,9-trimethyl-6H-thieno[2,3-e][1,2,4]triazolo[3,4-c][1,2,4]triazepine], for which the inhibition at 10 µM in assay [1] turned out to be 100%. The IC50 in the assay on NF-κB came out at 104 nM. `Cc1sc2c(c1C)C(c1ccc(Cl)cc1)=NN(Cc1cccc(F)c1)c1nnc(C)n1-2` [Example 9, 4-(4-chlorophenyl)-6-(3-fluorobenzyl)-2,3,9-trimethyl-6H-thieno[2,3-e][1,2,4]triazolo[3,4-c][1,2,4]triazepine]: the inhibition at 10 µM in assay [1] amounted to 100%. The same compound registered an IC50 in the assay with NF-κB of 17.6 nM. For `Cc1sc2c(c1C)C(c1ccc(Cl)cc1)=NN(Cc1ccccc1Cl)c1nnc(C)n1-2` [Example 10, 6-(2-chlorobenzyl)-4-(4-chlorophenyl)-2,3,9-trimethyl-6H-thieno[2,3-e][1,2,4]triazolo[3,4-c][1,2,4]triazepine], the inhibition at 10 µM in assay [1] came out at 100%. The compound also gave a half-maximal inhibitory concentration (IC50) in the assay with NF-κB of 192 nM. The corresponding values for `Cc1ccccc1CN1N=C(c2ccc(Cl)cc2)c2c(sc(C)c2C)-n2c(C)nnc21` [Example 11, 4-(4-chlorophenyl)-2,3,9-trimethyl-6-(2-methylbenzyl)-6H-thieno[2,3-e][1,2,4]triazolo[3,4-c][1,2,4]triazepine] are 100% and 291 nM. `Cc1cccc(CN2N=C(c3ccc(Cl)cc3)c3c(sc(C)c3C)-n3c(C)nnc32)c1` [Example 12, 4-(4-chlorophenyl)-2,3,9-trimethyl-6-(3-methylbenzyl)-6H-thieno[2,3-e][1,2,4]triazolo[3,4-c][1,2,4]triazepine]: in assay [1], the inhibition at 10 µM turned out to be 100%. Moreover, inhibition in the assay with NF-κB was half-maximal at 32.1 nM (IC50).

Consider `Cc1ccc(CN2N=C(c3ccc(Cl)cc3)c3c(sc(C)c3C)-n3c(C)nnc32)cc1` [Example 13, 4-(4-chlorophenyl)-2,3,9-trimethyl-6-(4-methylbenzyl)-6H-thieno[2,3-e][1,2,4]triazolo[3,4-c][1,2,4]triazepine], for which, in assay [1], the inhibition at 10 µM was determined as 100%. 233 nM corresponded to half-maximal inhibition in the assay on NF-κB (IC50). Turning to `Cc1sc2c(c1C)C(c1ccc(Cl)cc1)=NN(Cc1ccc(C(F)(F)F)cc1)c1nnc(C)n1-2` [Example 14, 4-(4-chlorophenyl)-2,3,9-trimethyl-6-(4-(trifluoromethyl)benzyl)-6H-thieno[2,3-e][1,2,4]triazolo[3,4-c][1,2,4]triazepine], the inhibition at 10 µM in assay [1] came to 100%. In the assay on NF-κB, this compound yielded an IC50 of 276 nM.

Take `Cc1sc2c(c1C)C(c1ccc(Cl)cc1)=NN(Cc1cccc(Cl)c1)c1nnc(C)n1-2` [Example 16, 6-(3-chlorobenzyl)-4-(4-chlorophenyl)-2,3,9-trimethyl-6H-thieno[2,3-e][1,2,4]triazolo[3,4-c][1,2,4]triazepine]: in assay [1], the inhibition at 10 µM stood at 100%. In the assay on NF-κB, this compound showed an IC50 of 77.5 nM. For the compound `Cc1sc2c(c1C)C(c1ccc(Cl)cc1)=NN(Cc1cccc(C(F)(F)F)c1)c1nnc(C)n1-2` [Example 18, 4-(4-chlorophenyl)-2,3,9-trimethyl-6-(3-(trifluoromethyl)benzyl)-6H-thieno[2,3-e][1,2,4]triazolo[3,4-c][1,2,4]triazepine], in assay [1], the inhibition at 10 µM is 100%. The compound further had a half-maximal inhibitory concentration (IC50) with NF-κB of 144 nM. On to `Cc1sc2c(c1C)C(c1ccc(Cl)cc1)=NN(CCc1ccccc1)c1nnc(C)n1-2` [Example 19, 4-(4-chlorophenyl)-2,3,9-trimethyl-6-phenethyl-6H-thieno[2,3-e][1,2,4]triazolo[3,4-c][1,2,4]triazepine], for which, in assay [1], the inhibition at 10 µM was 96.6%. Also, the IC50 in the assay with NF-κB is 1320 nM. The corresponding values for `Cc1sc2c(c1C)C(c1ccc(Cl)cc1)=NN(Cc1cccc(F)n1)c1nnc(C)n1-2` [Example 21, 4-(4-chlorophenyl)-6-((6-fluoropyridin-2-yl)methyl)-2,3,9-trimethyl-6H-thieno[2,3-e][1,2,4]triazolo[3,4-c][1,2,4]triazepine] are 100% and 30.3 nM. Turning to `Cc1sc2c(c1C)C(c1ccc(Cl)cc1)=NN(Cc1ncccc1F)c1nnc(C)n1-2` [Example 23, 4-(4-chlorophenyl)-6-((3-fluoropyridin-2-yl)methyl)-2,3,9-trimethyl-6H-thieno[2,3-e][1,2,4]triazolo[3,4-c][1,2,4]triazepine], in assay [1], the inhibition at 10 µM came to 100%. Further, inhibition in the assay on NF-κB was half-maximal at 158 nM (IC50). In the case of `CC(=O)Nc1ccc(C2=NN(Cc3cncc(O)c3)c3nnc(C)n3-c3sc(C)c(C)c32)cc1` [Example 99, N-(4-(6-((5-hydroxypyridin-3-yl)methyl)-2,3,9-trimethyl-6H-thieno[2,3-e][1,2,4]triazolo[3,4-c][1,2,4]triazepin-4-yl)phenyl)acetamide], in the assay on NF-κB, the IC50 came to 1640 nM.

As for `Cc1sc2c(c1C)C(c1ccc(N)cc1)=NN(Cc1cncc(O)c1)c1nnc(C)n1-2` [Example 103, 5-((4-(4-aminophenyl)-2,3,9-trimethyl-6H-thieno[2,3-e][1,2,4]triazolo[3,4-c][1,2,4]triazepin-6-yl)methyl)pyridin-3-ol], in the assay with NF-κB, the IC50 amounted to 289 nM. The compound `Cc1sc2c(c1C)C(c1ccc(N)cc1)=NN(Cc1ccc(O)nc1)c1nnc(C)n1-2` [Example 104] displayed an IC50 in the assay on NF-κB of 3940 nM.

The compound `Cc1sc2c(c1C)C(c1ccc(N)cc1)=NN(Cc1cccnc1)c1nnc(CO)n1-2` [Example 105, (4-(4-aminophenyl)-2,3-dimethyl-6-(pyridin-3-ylmethyl)-6H-thieno[2,3-e][1,2,4]triazolo[3,4-c][1,2,4]triazepin-9-yl)methanol] registered an IC50 in the assay with NF-κB of 4830 nM. In turn, `Cc1c(CO)sc2c1C(c1ccc(N)cc1)=NN(Cc1cccnc1)c1nnc(C)n1-2` [Example 106, (4-(4-aminophenyl)-3,9-dimethyl-6-(pyridin-3-ylmethyl)-6H-thieno[2,3-e][1,2,4]triazolo[3,4-c][1,2,4]triazepin-2-yl)methanol] gave an IC50 in the assay on NF-κB of 1840 nM. The compound `Cc1sc2c(c1CO)C(c1ccc(N)cc1)=NN(Cc1cccnc1)c1nnc(C)n1-2` [Example 107, (4-(4-aminophenyl)-2,9-dimethyl-6-(pyridin-3-ylmethyl)-6H-thieno[2,3-e][1,2,4]triazolo[3,4-c][1,2,4]triazepin-3-yl)methanol] had a 50% inhibitory concentration (IC50) with NF-κB of 2320 nM. The IC50 values of the last two compounds are within 1.5-fold of each other. In the case of `Cc1nnc2n1-c1scc(CCO)c1C(c1ccc(N)cc1)=NN2Cc1cccnc1` [Example 108, 2-(4-(4-aminophenyl)-9-methyl-6-(pyridin-3-ylmethyl)-6H-thieno[2,3-e][1,2,4]triazolo[3,4-c][1,2,4]triazepin-3-yl)ethane-1-ol], the IC50 in the assay with NF-κB was 4020 nM.
